Series [1] addresses T1, HCMV polymerase (Human cytomegalovirus, UniProt P08546).
T1 construct: made in house; host or cells: recombinant baculovirus-infected SF-9 cells
Briefly: HCMV polymerase assay (scintillation proximity assay). The series is classed as biochemical. The note with it: pol type CMV. In outline:
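Baculovirus/SF-9-expressed purified enzyme in HEPES pH 7.5, KCl, 4.5 mM MgCl2, BSA, with 90 nM ³H-dTTP, ± 2 mM CHAPS; started with 6 nM biotinylated poly(dA)-oligo(dT), 30 min, stopped with EDTA. Incorporation read by streptavidin SPA beads; IC50 by linear regression.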
In general terms: Scintillation proximity formats need no separation of bound from free tracer.

Series [2] deals with T2, CMV polymerase (Human cytomegalovirus, UniProt P08546).
T2 construct: made in house; host or cells: recombinant baculovirus-infected SF-9 cells
Briefly: modified version of the HCMV polymerase assay (100% DMSO dilution, DTT, different enzyme lot). The series is classed as biochemical. As to the method:
The HCMV polymerase assay is performed using a scintillation proximity assay (SPA) as described in several references, such as N. D. Cook, et al., Pharmaceutical Manufacturing International, pages 49-53 (1992); K. Takeuchi, Laboratory Practice, September issue (1992); U.S. Pat. No. 4,568,649 (1986); which are incorporated by reference herein. Reactions are performed in 96-well plates. The assay is conducted in 100 μl volume with 5.4 mM HEPES (pH 7.5), 11.7 mM KCl, 4.5 mM MgCl2, 0.36 mg/ml BSA, and 90 nM ^3H-dTTP. Assays are run with and without CHAPS, (3-[(3-Cholamidopropyl)-dimethylammonio]-1-propane-sulfonate) at a final concentration of 2 mM. HCMV is diluted in enzyme dilution buffer containing 50% glycerol, 250 mM NaCl, 10 mM HEPES (pH 7.5), 100 pg/ml BSA, and 0.01% sodium azide. The HCMV polymerase, which is expressed in recombinant baculovirus-infected SF-9 cells and purified according to literature procedures, is added at 10% (or 10 μl) of the final reaction volume, i.e., 100 μl. Compounds are diluted in 50% DMSO and 10 μl are added to each well. Control wells contain an equivalent concentration of DMSO. Unless noted otherwise, reactions are initiated via the addition of 6 nM biotinylated poly(dA)-oligo(dT) template/primer to reaction mixtures containing the enzyme, substrate, and compounds of interest. Plates are incubated in a 25° C. of 37° C. H2O bath and terminated via the addition of 40 μl/reaction of 0.5 M EDTA (pH 8) per well. Reactions are terminated within the time-frame during which substrate incorporation is linear and varied depending upon the enzyme and conditions used, i.e., 30 min. for HCMV polymerase. Ten μl of streptavidin-SPA beads (20 mg/ml in PBS/10% glycerol) are added following termination of the reaction. Plates are incubated 10 min. at 37° C., then equilibrated to room temperature, and counted on a Packard Topcount. Linear regressions are performed and IC50's are calculated using computer software. Results of the testing of compounds of the present invention in this assay are shown in Tables 1, 2, 5, 9, 10, 11, 13 (except for the last compound which was tested under modified conditions) and 14 below.
A modified version of the above HCMV polymerase assay is performed as described above, but with the following changes: Compounds are diluted in 100% DMSO until final dilution into assay buffer. In the previous assay, compounds are diluted in 50% DMSO. 4.5 mM dithiotherotol (DTT) is added to the polymerase buffer.

The mark [3] stands for this setting: Table 1, read-out: CMV pol Assay IC50.
Setting [4] is: Polymerase CMV, Table 7, read-out: Antiviral Selective Polymerase IC50 Values - IC50.

“And” between values parts separate entries of the source, which are not always exact repeats. Equal values may be shown once. Read-outs that look alike come from different tables or passages of the source.

T2 sequence (P08546 whole entry): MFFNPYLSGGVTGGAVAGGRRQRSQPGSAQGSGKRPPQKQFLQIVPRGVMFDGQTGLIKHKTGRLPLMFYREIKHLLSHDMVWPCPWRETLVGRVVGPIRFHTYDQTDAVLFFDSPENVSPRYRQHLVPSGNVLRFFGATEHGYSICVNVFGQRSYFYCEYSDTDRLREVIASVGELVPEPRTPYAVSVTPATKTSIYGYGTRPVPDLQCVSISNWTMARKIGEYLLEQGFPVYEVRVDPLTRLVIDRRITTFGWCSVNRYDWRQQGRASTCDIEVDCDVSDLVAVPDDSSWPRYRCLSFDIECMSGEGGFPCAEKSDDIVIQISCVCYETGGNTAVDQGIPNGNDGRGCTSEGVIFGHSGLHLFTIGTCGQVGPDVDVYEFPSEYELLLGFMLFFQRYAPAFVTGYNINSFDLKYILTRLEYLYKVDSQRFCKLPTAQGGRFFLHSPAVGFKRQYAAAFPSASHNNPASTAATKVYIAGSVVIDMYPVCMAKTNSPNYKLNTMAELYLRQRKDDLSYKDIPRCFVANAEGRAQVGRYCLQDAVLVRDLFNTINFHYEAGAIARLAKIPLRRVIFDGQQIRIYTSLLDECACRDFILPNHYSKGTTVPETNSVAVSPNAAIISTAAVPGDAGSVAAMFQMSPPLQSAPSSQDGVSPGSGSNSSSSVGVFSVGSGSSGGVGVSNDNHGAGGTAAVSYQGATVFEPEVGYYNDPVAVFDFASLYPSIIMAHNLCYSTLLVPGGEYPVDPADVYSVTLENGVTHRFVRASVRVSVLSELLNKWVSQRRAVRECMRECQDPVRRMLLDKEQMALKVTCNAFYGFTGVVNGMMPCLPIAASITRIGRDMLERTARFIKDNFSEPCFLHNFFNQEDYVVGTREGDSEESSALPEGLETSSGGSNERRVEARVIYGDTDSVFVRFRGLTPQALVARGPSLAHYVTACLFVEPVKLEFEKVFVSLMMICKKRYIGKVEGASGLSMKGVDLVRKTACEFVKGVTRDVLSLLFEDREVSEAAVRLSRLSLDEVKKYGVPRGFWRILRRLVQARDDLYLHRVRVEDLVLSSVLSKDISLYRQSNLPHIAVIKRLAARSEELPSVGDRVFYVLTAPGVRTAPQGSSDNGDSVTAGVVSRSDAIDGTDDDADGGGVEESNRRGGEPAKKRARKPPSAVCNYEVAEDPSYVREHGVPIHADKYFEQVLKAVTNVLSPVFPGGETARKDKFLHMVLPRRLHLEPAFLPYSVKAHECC
T1 sequence (P08546 whole entry): as above

The term melting point denotes the temperature of the solid-liquid transition. In general, IC50 refers to the concentration that inhibits the measured activity by half. In turn, `Cc1ccc2c(Cl)cc(S(=O)(=O)NCCSc3ccccc3)c(O)c2n1` [Example 26, 5-Chloro-8-hydroxy-2-methyl-N-[2-(phenylthio)ethyl]-7-quinolinesulfonamide] came in with a melting point of 136 to 139 °C. The IC50 in series [1] (Table 2, read-out: IC50) was 4.6 µM.
`COc1ccc(/C=C/c2ccc3ccc(C(=O)NCc4ccc(Cl)cc4)c(O)c3n2)cc1` [Example 47, N-[(4-Chlorophenyl)methyl]-8-hydroxy-2-[2-(4-methoxyphenyl)ethenyl]-7-quinolinecarboxamide]: the melting point was in the range of 200 to 201 °C. Besides, the IC50 in series [1] (Table 5, read-out: IC50) is 0.35 µM and < 0.3 µM.
For `O=S(=O)(NCc1ccc(Cl)cc1)c1cc(Cl)c2cccnc2c1O` [Example 18, 5-Chloro-N-[(4-chlorophenyl)methyl]-8-hydroxy-7-quinoline-sulfonamide], the melting point was 189 to 190 °C (dec.). Moreover, the IC50 in series [1] (Table 2, read-out: IC50) was 27.9 µM.
`Cc1ccc(F)cc1NC(=O)c1ccc2cccnc2c1O` [Example 165, N-(5-Fluoro-2-methylphenyl)-8-hydroxy-7-quinolinecarboxamide] registered a melting point of 209 to 210 °C.
As for `O=C(Nc1nnc(Br)s1)c1ccc2cccnc2c1O` [Example 244, N-(5-Bromo-1,3,4-thiadiazol-2-yl)-8-hydroxy-7-quinolinecarboxamide], the melting point is 250 °C (dec.).
Compound `O=C(NCc1ccc([N+](=O)[O-])cc1)c1ccc2cccnc2c1O` [Example 12, 8-Hydroxy-N-[(4-nitrophenyl)methyl]-7-quinolinecarboxamide] registered a melting point of 210 to 212 °C. The IC50 in series [1] (setting [3]) amounted to 15.9 µM.
Take `O=C(Nc1nnc(C(F)(F)F)s1)c1ccc2cccnc2c1O` [Example 243, 8-Hydroxy-N-[5-(trifluoromethyl)-1,3,4-thiadiazol-2-yl]-7-quinolinecarboxamide]: the melting point was 300 to 302 °C (dec.).
As to `O=C(NC1=NC(=O)C(c2ccc(Cl)cc2)S1)c1ccc2cccnc2c1O` (stereo not drawn) [Example 5, N-[5-(4-Chlorophenyl)-4,5-dihydro-4-oxo-2-thiazolyl]-8-hydroxy-7-quinolinecarboxamide], the melting point is 272 to 276 °C (dec.). Moreover, the IC50 in series [1] (setting [3]) is 6.8 µM.
For `Cc1ccc2c(Cl)cc(S(=O)(=O)NCC3CCCCC3)c(O)c2n1` [Example 32, 5-Chloro-N-(cyclohexylmethyl)-8-hydroxy-2-methyl-7-quinolinesulfonamide], the melting point was in the range of 113 to 115 °C.
In the case of `O=C(NCCCc1ccccc1)c1ccc2ccc(/C=C/c3ccccc3)nc2c1O`, in series [2] (Table 13, last compound, tested under modified conditions, read-out: IC50), the IC50 is 5.1 µM.
Turning to `Cc1ccc2c(Cl)cc(C(=O)NCc3ccc(Cl)cc3)c(O)c2n1` [Example 68, 5-Chloro-N-[(4-chlorophenyl)methyl]-8-hydroxy-2-methyl-7-quinolinecarboxamide], the melting point lay in the range of 128 to 130 °C.
The same measure, in the same setting: for `Cc1ccc2c(Cl)cc(C(=O)NCCCc3ccccc3)c(O)c2n1` [Example 69, 5-chloro-8-hydroxy-2-methyl-N-(3-phenylpropyl)-7-quinolinecarboxamide] the value was 109 to 111 °C.
Consider `O=C(NCc1ccc(Cl)cc1)c1cc(F)c2cccnc2c1O` [Example 16, 5-Fluoro-N-[[4-chlorophenyl]methyl]-8-hydroxy-7-quinolinecarboxamide], for which the melting point fell in the range of 184 to 185 °C. Moreover, the IC50 in series [1] (setting [3]) came out at 5.8 µM.
The compound `CC(C)c1ccc(S(=O)(=O)NCCCCCNC(=O)c2ccc3cccnc3c2O)cc1` [Example 71] yielded a melting point of 106 to 108 °C.
Turning to `Cc1ccc2c(Cl)cc(S(=O)(=O)NCCc3ccc(Cl)cc3Cl)c(O)c2n1` [Example 25, 5-Chloro-N-[2-(2,4-dichlorophenyl)ethyl]-8-hydroxy-2-methyl-7-quinolinesulfonamide], the melting point lay in the range of 132 to 135 °C. In addition, the IC50 in series [1] (Table 2, read-out: IC50) was found to be 3.6 µM.
The compound `O=C(Nc1cc(C(F)(F)F)ccc1Cl)c1ccc2cccnc2c1O` [Example 164, N-[2-Chloro-5-(trifluoromethyl)phenyl]-8-hydroxy-7-quinolinecarboxamide] yielded a melting point of 210 to 211 °C.
A word on the % Inhibition: it is the percentage by which the read-out fell short of the control. Higher therefore signals a strong effect. For the compound `O=S(=O)(NCc1ccccc1)c1cc(F)c2cccnc2c1O` [Example 67, 5-Flouro-8-hydroxy-N-(phenylmethyl)-7-quinolinesulfonamide], the “% Inhibition” value in series [2] (Concentration 3.13 μM, Table 6) was 13%; in series [2] (Concentration 6.25 μM, Table 6), 23%; in series [2] (Concentration 12.5 μM, Table 6) it was 25%; in series [2] (Concentration 25 μM, Table 6) it was 41%; in series [2] (Concentration 50 μM, Table 6), 76%; in series [2] (Concentration 100 μM, Table 6) it was 86%. For the same compound, in series [2] (Concentration 200 μM, Table 6), the “% Inhibition” value came out at 94%. The IC50 in series [2] (Table 6, read-out: IC50) amounted to 23.6 µM.
As for `COc1ccc(CCc2ccc3ccc(C(=O)NCC(O)c4ccccc4)c(O)c3n2)cc1` (stereo not drawn) [drawing 129], the IC50 in series [2] (setting [4]) was 13.3 µM.
With `Cc1ccc2c(Cl)cc(S(=O)(=O)NCCc3c[nH]c4ccccc34)c(O)c2n1` [Example 64], the “% Inhibition” value in series [2] (Concentration 3.13 μM, Table 6) is recorded as 16%; in series [2] (Concentration 6.25 μM, Table 6), 25%; in series [2] (Concentration 12.5 μM, Table 6), 25%; in series [2] (Concentration 25 μM, Table 6), 46%; in series [2] (Concentration 50 μM, Table 6), 75%; in series [2] (Concentration 100 μM, Table 6) it was 58%. Also, the “% Inhibition” value in series [2] (Concentration 200 μM, Table 6) was found to be 84%. The IC50 in series [2] (Table 6, read-out: IC50) stood at 29.8 µM.
The compound `CCCCCCCNC(=O)c1ccc2ccc(C(F)(F)F)nc2c1O` [Example 56, N-Heptyl-8-hydroxy-2-(trifluoromethyl)-7-quinolinecarboxamide] registered a melting point of 97 to 99 °C.
Turning to `CSCC[C@H](Nc1nnc(NC(=O)c2ccc3cccnc3c2O)s1)C(=O)OC(C)(C)C.O` (hydrate or solvate), the melting point fell in the range of 204 to 205 °C.
Same read-out and setting: the result for `O=S(=O)(NCc1ccccc1)c1cc(Br)c2cccnc2c1O` [Example 24, 5-Bromo-8-hydroxy-N-(phenylmethyl)-7-quinolinesulfonamide] reads 191 to 192 °C.
Regarding `Cc1ccc2c(Cl)cc(C(=O)NCCCc3ccccc3)c(O)c2n1` [drawing 126], in series [2] (setting [4]), the 50% inhibitory concentration (IC50) was 9.7 µM and 9.4 µM.
For the compound `Cc1ccc2c(Cl)cc(C(=O)NCCSc3ccccc3)c(O)c2n1` [drawing 127], the half-inhibitory concentration (IC50) in series [2] (setting [4]) worked out at 42.8 µM.
On to `Cc1ccc2c(Cl)cc(C(=O)NCCSc3ccccc3)c(O)c2n1` [Example 70, 5-chloro-8-hydroxy-2-methyl-N-[(2-phenylthio)ethyl]-7-quinolinecarboxamide], for which the melting point lay in the range of 131 to 134 °C.
In the case of `CC(C)c1ccc(S(=O)(=O)NCCCCCNC(=O)c2ccc3cccnc3c2O)cc1` [drawing 128], in series [2] (setting [4]), the IC50 is less than 3.1 µM.
In the case of `COc1ccc(CCc2ccc3ccc(C(=O)NCC(O)c4ccccc4)c(O)c3n2)cc1` (stereo not drawn) [Example 73, 8-hydroxy-N-(2-hydroxy-2-phenylethyl)-2-[2-(4-methoxyphenyl)ethyl]-7-quinolinecarboxamide], the melting point is 69 to 72 °C.
Take `N#CCNC(=O)c1ccc2cccnc2c1O` [Example 72, N-(cyanomethyl)-8-hydroxy-7-quinolinecarboxamide]: the melting point is 206 to 208 °C (dec.).
Still for that read-out and setting: the result for `CC(C)C[C@H](Nc1nnc(NC(=O)c2ccc3cccnc3c2O)s1)C(=O)OC(C)(C)C.O` (hydrate or solvate) reads 214 to 215 °C.
The compound `Cc1ccc(NC(=O)c2ccc3cccnc3c2O)c(C)c1` [Example 166, N-(2,4-Dimethylphenyl)-8-hydroxy-7-quinolinecarboxamide] came in with a melting point of 164 to 167 °C.

Values taken from patent US6500842B1, “8-hydroxy-7-substituted quinolines as anti-viral agents” (Pharmacia & Upjohn Company, priority 1996, dated 2002).
